Consider five compounds from US20250346633A1, “MACOLACINS AND METHODS OF USE THEREOF” (priority 2021, published 2025).

Values after ≈ are worked out from the molar mass of the structure shown. Read-outs that look alike come from different tables or passages of the source. Bridge positions count the residues as written; N and C are the ends. Square brackets hold non-standard residues; d marks the D form. Peptide text beside a SMILES is read from it. * marks the point of attachment. Benzoyl(4-Ph) = O=C(c1ccc(-c2ccccc2)cc1)*; X1 = CC[C@H](C)CCCCC(=O)*; Dab = NCC[C@H](N)C(=O)O Some results are limits rather than exact numbers.

Series [1] deals with A. baumannii 0301 with mcr-1. To be noted: colistin R.
Series [2] deals with CRAB, as well as a panel of XDR A. baumannii clinical isolates. As to conditions: CRAB and XDR A. baumannii clinical isolates, even when transformed with mcr-1.
Procedure: MIC assays were conducted following the protocol recommended by the Clinical and Laboratory Standards Institute (Testing E C et al., 2016, EUCAST: Växjö; Wikler M A et al., 2006, CLSI (NCCLS), 26: M7-A7). […] Polymyxin B sulfate (Sigma, USA) and colistin sulfate (Sigma, USA) were used as positive controls. […] The top and bottom rows of each plate were filled with 100 μL of LB broth without compound to avoid edge effects. The last well in each row was treated as a negative control. It contained bacteria but no test compounds. A single colony of each assayed bacterial strain was inoculated into 5 mL of LB broth medium and grown overnight at 37° C. (200 rpm). For assays using bacteria containing mcr-1 expression plasmids, the appropriate selection antibiotic was added to keep the plasmid stable (concentrations are listed in Table 5). Saturated overnight cultures were diluted 5,000-fold in fresh LB, and then 50 μL was transferred into individual wells of a 96-well plate.
For series [3] the following is noted: mouse, in vivo, sc, 10 mg/kg.
Procedure: (§1) Six-week old CD-1 female mice (20-25 g) were used in pharmacokinetic studies. […] Aliquots of 20 μL of blood were taken by puncture of the lateral tail vein from each mouse (n=2 per route and dose) at 30 minutes, 1, 3, and 5 hours post-dose and captured in CB300 blood collection tubes containing K2EDTA and stored on ice. Plasma was recovered after centrifugation and stored at −80° C. until analyzed by high pressure liquid chromatography coupled to tandem mass spectrometry. […] Standards and QCs were created by adding 10 μL of spiking solutions to 90 μL of drug free plasma (CD-1 K2EDTA Mouse, Bioreclamation IVT). 10 μL of control, standard, QC, or study samples were added to 10 μL of internal standard. […] The compounds were extracted by adding 100 μL of 50% Methanol/50% (10% Trichloroacetic acid in water) precipitation solvent. Extracts were vortexed for 5 minutes and centrifuged at 4,000 rpm for 5 minutes. 75 μL of supernatant was transferred for HPLC-MS/MS analysis and diluted with 75 μL of Milli-Q deionized water. LC-MS/MS analysis was performed on a Sciex Applied Biosystems Qtrap 6500+triple-quadrupole mass spectrometer coupled to a Shimadzu Nexera×2 UHPLC system to quantify each drug in plasma. […] Multiple-reaction monitoring of parent/daughter transitions in electrospray positive-ionization mode was used to quantify the analytes. […]
Series [4] concerns A. baumannii ATCC17978. Put plainly: CHIR-090 inhibition assay (growth curves). The format is cell-based, Acinetobacter baumannii. To be noted: for A. baumannii growth: antibiotic alone at concentrations above MIC; for A. baumannii growth / A. baumannii growth with CHIR-090 included: 48 hours; for A. baumannii growth with CHIR-090 included: antibiotic plus CHIR-090.
Series [5] concerns K. pneumoniae and A. baumannii. Put plainly: MIC upon addition of cell wall components (lipid A, LPS) to the media. The format is cell-based, Klebsiella pneumoniae; Acinetobacter baumannii. To be noted: FIG. 3C; n=2.
Another series relates to S. aureus SH1000. As to conditions: colistin R, n=2.
For series [6], the system named is A. baumannii ATCC17978 (pMQ124xlab1-mcr-1).
Series [7] in a line: Pharmacokinetics assessment. As to conditions: mice; single subcutaneous dose of 10 mg/kg; FIG. 9.
Procedure: as §1
The test system of series [8] is S. typhimurium 0635 (mcr-1 clinical isolate). As to conditions: colistin R.
The next series deals with P. aeruginosa PA01. As to conditions: colistin S, n=2.
The next series is described as follows: MTT cytotoxicity assay. As to conditions: HEK293, human cells. Format: cell-based. The procedure:
Compounds with different concentrations were then added into each well. After 48 h of incubation, the media was removed and MTT solution (0.45 mg/mL) was added into each well. After 3 h of incubation, the solution was aspirated. […] The absorbance of each well was measured at OD570nm using a microplate reader (Epoch Microplate Spectrophotometer, BioTek). Taxol was used as the positive control. […] All the experiments were performed triplicates (n=3).
(Tetrazolium dyes change colour on reduction, which living cells bring about.)

Series [9] has as its system E. cloacae ATCC13047 (ΔphoP/Q + phoP/Q). As to conditions: colistin R.
Procedure: (§2) MIC assays were conducted following the protocol recommended by the Clinical and Laboratory Standards Institute (Testing E C et al., 2016, EUCAST: Växjö; Wikler M A et al., 2006, CLSI (NCCLS), 26: M7-A7). […] Polymyxin B sulfate (Sigma, USA) and colistin sulfate (Sigma, USA) were used as positive controls. […] The top and bottom rows of each plate were filled with 100 μL of LB broth without compound to avoid edge effects. The last well in each row was treated as a negative control. It contained bacteria but no test compounds. A single colony of each assayed bacterial strain was inoculated into 5 mL of LB broth medium and grown overnight at 37° C. […] Saturated overnight cultures were diluted 5,000-fold in fresh LB, and then 50 μL was transferred into individual wells of a 96-well plate.
The test system of series [10] is K. pneumoniae 0497 (mcr-1 clinical isolate). As to conditions: colistin R.
Another series deals with K. pneumoniae 10031. To be noted: colistin S, n=2.
In another series the test system is E. cloacae 0150. To be noted: colistin S, n=2.
Series [11] relates to A. baumannii ATCC17978.
The test system of another series is K. pneumoniae ATCC13883. To be noted: colistin S, mcr-1 engineered pair.
The subject of a further series is A. baumannii 0287. To be noted: mcr-1 −, colistin S.
Series [12] deals with K. pneumoniae ATCC13883 (pMQ124-mcr-1).
Series [13] has as its system A. baumannii SM1536 (pMQ124xlab1-mcr-1).
The subject of another series is A. baumannii 0282. As to conditions: mcr-1 −, colistin S.
The test system of series [14] is A. baumannii 0295 with mcr-1. As to conditions: colistin R.
Series [15] deals with A. baumannii-0301-(mcr-1). Put plainly: Neutropenic thigh infection model. Format: in vivo, Acinetobacter baumannii. As to conditions: neutropenic mouse thigh, 20 mg/kg SC at 6 hour intervals, 24 h.
Procedure: (§3) After 24 hours the bacterial burden in each infected thigh was determined based on colony forming units (CFUs) that arose from homogenized tissue samples.
(§4) Six-week old female outbred Swiss Webster mice (20-25 g) were used for this experiment. Mice were housed in individually ventilated cages (IVC) and maintained in accordance with American Association for Accreditation of Laboratory Care criteria. Acinetobacter baumannii SM1536-(mcr-1) or A. baumannii-0301-(mcr-1) was grown in cation adjusted Mueller Hinton (MH) broth containing 50 μg/mL of gentamycin at 37° C. with shaking overnight. The cultures were centrifuged, supernatant aspirated and the bacteria were gently washed twice in sterile saline. […] All mice were closely monitored post-infection for morbidity. Any abnormal clinical signs were recorded if observed. […] The treatment efficacy was determined both as the bacterial burden reduction in the thighs relative to the vehicle and colistin treated controls. All graphic data are expressed as columnar average data points by group and were statistically analyzed using computer Prism software (Prism 9). Burden differences between testing and control groups was assessed by post-hoc analysis, using the Mann-Whitney comparison test. […]
Another series deals with E. faecium Com15. As to conditions: colistin R, n=2.
The subject of another series is A. baumannii 0296. To be noted: mcr-1 −, colistin S.
In series [16] the test system is A. baumannii SM1536-(mcr-1). Put plainly: Neutropenic thigh infection model. The format is in vivo, Acinetobacter baumannii. As to conditions: neutropenic mouse thigh, 20 mg/kg SC at 6 hour intervals, 24 h.
Procedure: as §3, §4
The next series has as its system A. baumannii 0286. As to conditions: mcr-1 −, colistin S.
The subject of series [17] is E. cloacae ATCC13047 (ΔphoP/Q).
Procedure: as §2
In a further series the test system is A. baumannii SM1536. To be noted: colistin S.
The test system of series [18] is A. baumannii 0287 with mcr-1. As to conditions: colistin R.
A further series relates to A. baumannii 0295. As to conditions: mcr-1 −, colistin S.
For the next series, the system named is Gram−positive pathogens. Put plainly: MIC against ESKAPE pathogens. As to conditions: highest concentration tested 128 μg/mL. The format is cell-based.
Series [19] concerns K. pneumoniae and A. baumannii transformed with a plasmid expressing mcr-1. Format: cell-based, Klebsiella pneumoniae; Acinetobacter baumannii.
[20] abbreviates: A. baumannii ATCC17978, colistin S, mcr-1 engineered pair.
[21] abbreviates: A. baumannii SM1536 (pMQ124xlab1-mcr-1), colistin R.
The mark [22] stands for this setting: extremely highly colistin resistant A. baumannii.

As to `CC[C@H](C)[C@@H]1NC(=O)[C@@H](CC(C)C)NC(=O)[C@H](CCN)NC(=O)[C@@H](NC(=O)[C@@H](CO)NC(=O)[C@@H](NC(=O)[C@H](CCN)NC(=O)c2ccc(-c3ccccc3)cc2)[C@@H](C)O)CCNC(=O)[C@H](CC(C)C)NC(=O)[C@H](CCN)NC(=O)[C@H](CCN)NC1=O` [Biphenyl-macolacin] ({Benzoyl(4-Ph)}-[Dab]T[dS][Dab][Dab][dL]I[Dab][Dab]L; lactam 4-C), the “Antibiotic MIC” value in the series with A. baumannii 0301 (0301) was 0.5 µg/mL; in series [1], 1 µg/mL; in [1] (listed as biphenyl-macolacin) it was below 2 µg/mL. In [2], this compound registered an MICs below 2 µg/mL. Further, in series [3], the “plasma drug exposure (pharmacokinetic profile)” value is on record as “parity in plasma drug exposure”. The compound further registered an MIC in the series on Proteus vulgaris of 4 µg/mL (≈ 3.31 µM).

Turning to `C[C@@H](O)[C@H](NC(=O)c1ccc(C#Cc2ccc(CN3CCOCC3)cc2)cc1)C(=O)NO` [CHIR-090], in the series with A. baumannii ATCC17978 [4] (CHIR-090 alone), the “A. baumannii growth, CHIR-090 alone” value is “did not inhibit A. baumannii growth”.

Regarding `CC[C@H](C)CCCCC(=O)N[C@@H](CCN)C(=O)N[C@H](C(=O)N[C@@H](CCN)C(=O)N[C@H]1CCNC(=O)[C@H]([C@@H](C)O)NC(=O)[C@H](CCN)NC(=O)[C@H](CCN)NC(=O)[C@H](CC(C)C)NC(=O)[C@@H](CC(C)C)NC(=O)[C@H](CCN)NC1=O)[C@@H](C)O` [Colistin, colistin] (X1-[Dab]T[Dab][Dab][Dab][dL]L[Dab][Dab]T; lactam 4-C), in [5], the “change of MIC on addition of lipid A or lipopolysaccharide (LPS) to the assay media” value was “significant increase”. For the same compound, the minimal inhibitory concentration (MIC) against S. aureus SH1000 was above 128 µg/mL; in series [6] (ATCC17978) it was 32 µg/mL (≈ 27.4 µM); in series [8], 16 µg/mL (≈ 13.7 µM); against P. aeruginosa PA01 it was 1 µg/mL (≈ 0.855 µM); in series [9], 32 µg/mL (≈ 27.4 µM); in series [9] (listed as colistin), “resistant”. Besides, the MIC in series [10] amounted to 32 µg/mL (≈ 27.4 µM); against K. pneumoniae 10031, 0.5 µg/mL (≈ 0.428 µM); in the series on E. cloacae 0150, 1 µg/mL (≈ 0.855 µM); in the series on A. baumannii ATCC17978 [11] (setting [20]), 1 µg/mL (≈ 0.855 µM); against K. pneumoniae ATCC13883, 1 µg/mL (≈ 0.855 µM); in series [12] (ATCC13883), 64 µg/mL (≈ 54.7 µM). Moreover, the MIC in series [13] (setting [21]) is 128 µg/mL (≈ 109 µM); in [13] (setting [22]), above 128 µg/mL; with E. faecium Com15, above 128 µg/mL; in series [17], 1 µg/mL (≈ 0.855 µM); in the series with A. baumannii SM1536, 0.5 µg/mL (≈ 0.428 µM). Moreover, in [7], the “plasma drug exposure (pharmacokinetic profile)” value is reported as “parity in plasma drug exposure”. Moreover, the “Antibiotic MIC” value with A. baumannii 0301 (A. baumannii 0301, mcr-1 −, colistin S) was 0.25 µg/mL; in series [1], above 128 µg/mL; in [1] (listed as colistin), above 64 µg/mL; in the series on A. baumannii 0287 it was 0.5 µg/mL; with A. baumannii 0282 it was 0.5 µg/mL; in series [14] it was above 128 µg/mL. The “Antibiotic MIC” value amounted to 0.25 µg/mL in the series with A. baumannii 0296, 1 µg/mL in the series with A. baumannii 0286, 64 µg/mL in series [18] and 0.25 µg/mL in the series with A. baumannii 0295. The compound also gave an IC50 at 48 h in the series “MTT cytotoxicity assay” above 512 µg/mL. In addition, the A. baumannii growth entry in the series with A. baumannii ATCC17978 [4] is listed as “completely abrogated A. baumannii growth”. For the same compound, the “A. baumannii growth with CHIR-090 included” value in the series on A. baumannii ATCC17978 [4] is given as “rescued A. baumannii growth”. Further, the “bacterial burden in infected thighs” value in series [15] and in series [16] was “did not reduce the bacterial burden below the level of the initial infection” each time.

As to `CC[C@H](C)CCCCC(=O)N[C@@H](CCN)C(=O)N[C@H](C(=O)N[C@H](CO)C(=O)N[C@H]1CCNC(=O)[C@H](CC(C)C)NC(=O)[C@H](CCN)NC(=O)[C@H](CCN)NC(=O)[C@H]([C@@H](C)CC)NC(=O)[C@@H](CC(C)C)NC(=O)[C@H](CCN)NC1=O)[C@@H](C)O` [Macolacin] (X1-[Dab]T[dS][Dab][Dab][dL]I[Dab][Dab]L; lactam 4-C), in series [5], the “change of MIC on addition of lipid A or lipopolysaccharide (LPS) to the assay media” value is “significant increase”. Further, the MIC in series [6] worked out at 2 µg/mL (≈ 1.71 µM); in [9] it was 2 µg/mL (≈ 1.71 µM); in series [13] (setting [22]), 8 µg/mL (≈ 6.85 µM). Also, in the series with A. baumannii 0301 (0301), the “Antibiotic MIC” value is 0.5 µg/mL. For the same compound, the “activity against Gram−positive pathogens” value in the series with Gram−positive pathogens is “no activity”. In addition, the “increase in MIC upon mcr-1 expression” value in [19] was 2- to 4 fold. The A. baumannii growth entry with A. baumannii ATCC17978 [4] is recorded as “completely abrogated A. baumannii growth”. In addition, in the series with A. baumannii ATCC17978 [4], the “A. baumannii growth with CHIR-090 included” value is recorded as “rescued A. baumannii growth”.

For the compound Polymyxin B, the MIC with S. aureus SH1000 was above 128 µg/mL; in series [6] it was 16 µg/mL; in series [8], 16 µg/mL; in the series on P. aeruginosa PA01, 2 µg/mL; in [9], 32 µg/mL; in series [9] (listed as polymyxin B), “resistant”. Moreover, the MIC is 32 µg/mL in series [10]; 1 µg/mL in the series with K. pneumoniae 10031; 1 µg/mL with E. cloacae 0150; 0.5 µg/mL against A. baumannii ATCC17978 [11]; 0.5 µg/mL against A. baumannii ATCC17978 [11] (setting [20]); 1 µg/mL with K. pneumoniae ATCC13883. Further, the MIC is 128 µg/mL in series [12]; 128 µg/mL in series [13] (setting [21]); above 128 µg/mL with E. faecium Com15; 1 µg/mL in series [17]; 1 µg/mL in the series with A. baumannii SM1536.

Broadly, the MIC is the lowest concentration found to suppress growth. In general, IC50 refers to the concentration at which inhibition is half-maximal.
